Patent US20100226981A1, “ORAL DOSAGE FORMS HAVING A HIGH LOADING OF A GABAPENTIN PRODRUG” (XenoPort, Inc., priority 2009, published 2010)

How the values were obtained:
[1] = Flow characterization of dry powders and granulations (density, Carr, Hausner, Flodex); format: physicochemical; conditions: ungranulated, no water
Excerpt: The flow of dry powders was characterized using a FLODEX™ Powder Flowability Index Test Instrument (Hanson Research Corporation, Chatsworth, Calif.). The instrument was equipped with a cylindrical metal reservoir, which holds the test powder prior to flow testing. The cylindrical reservoir has an inside diameter of 5.7 cm and a length of […]. The bottom end of the reservoir can be closed with removable metal discs. Each disc has a round orifice centered in the disc. Orifice diameters range from 4 mm to 10 mm in 1 mm increments, and from 10 mm to 34 mm in 2 mm increments. Prior to flow testing, the orifice is blocked. Powder is then placed over the blocked orifice. When the orifice is unblocked, powder can flow through the orifice under the force of gravity if the orifice diameter is sufficiently large. Powder that flows through small orifices is considered to have flow properties useful for tableting. For example, a Flodex measurement (Flodex) of less than about 24 mm is typically used for high-speed tableting operations at commercial scale. A Flodex less than about 20 mm is useful for high-speed tableting operations. A Flodex of 18 mm or less is considered especially useful for high throughput tableting operations.
The Flodex is determined by first gently filling the reservoir while the orifice at the bottom is blocked with approximately 70 cc of test powder, while avoiding severe piling, and without vibrating or tapping the powder bed. Next, the orifice is unblocked. This can be accomplished by opening a shutter that is supplied with the instrument. Alternatively, if a shutter is not used, the powder-filled reservoir fitted with a disc can be set on a dry, flat surface to block the orifice. Then, slowly and evenly, the reservoir is lifted to allow the powders to flow. In either procedure, if the powder flows through the orifice, a clear channel is left within the powder bed. […] The flow test is conducted with various orifice sizes until the minimum orifice size for good flow is identified, which is referred to as the Flodex.
The impact of the amount of water used during high shear wet granulation on the strength of granules was determined. Granulations containing either 98 wt-% compound (1), 1 wt-% METHOCELT™-E4M and 1 wt-% SLS, or 97 wt-% compound (1) and 3 wt-% METHOCEL™-E4M, were prepared using from 20 wt-% to 30 wt-% water, dried, and the granule strength measured by determining the air pressure at which the particles began to fracture using a Sympatec particle analyzer (QicPic/RODOS-L/VIBRI-L, Sympatec GmbH, Clausthal-Zellerfeld, DE).
The Main Blend contained 98 wt-% compound (1), 1 wt-% METHOCELT™-E4M, and 1 wt-% SLS. Blend D contained 90 wt-% granules blended with 8 wt-% METHOCEL™-K100M and 2 wt-% magnesium stearate, and Blend E contained 89 wt-% granules blended with 8 wt-% METHOCEL™-K100M and 3 wt-% magnesium stearate and were prepared as described in Example 4.

[2] = dosed either orally or directly into the colon of a mammal; cited from earlier work

CC(OC(=O)NCC1(CC(=O)O)CCCCC1)OC(=O)C(C)C (stereo not drawn) [Compound (1), 1-([(α-Isobutanoyloxyethoxy)carbonyl]aminomethyl)-1-cyclohexane acetic acid]
Bulk Density [1]: 0.329 gm/mL | Carr Index [1]: 27.0 | Flodex [1]: >34 mm | Hausner Ratio [1]: 1.37 | Tap Density [1]: 0.450 gm/mL | bioavailability as gabapentin [2]: high bioavailability as gabapentin
